Experimental data: patent publication US9340590B2 (priority 2011, dated 2016)
Like-named read-outs stand apart in the source and are kept apart here. Positions of bridges follow the written chain, without caps; N, C: chain ends. Non-standard residues stand in square brackets, D forms with d. Residues, ends and D or L forms follow the SMILES beside them. 1Nal = N[C@@H](Cc1cccc2ccccc12)C(=O)O

Tests used:
Assay in all cases: cell-based
hNav1.7 = hNav1.7 (Homo sapiens, UniProt Q15858); type: cell-based; details: IonWorks Quattro, use-dependent block, read-out: IWQ Use Nav1.7
hNav1.7, sequence (Q15858 whole entry, looked up): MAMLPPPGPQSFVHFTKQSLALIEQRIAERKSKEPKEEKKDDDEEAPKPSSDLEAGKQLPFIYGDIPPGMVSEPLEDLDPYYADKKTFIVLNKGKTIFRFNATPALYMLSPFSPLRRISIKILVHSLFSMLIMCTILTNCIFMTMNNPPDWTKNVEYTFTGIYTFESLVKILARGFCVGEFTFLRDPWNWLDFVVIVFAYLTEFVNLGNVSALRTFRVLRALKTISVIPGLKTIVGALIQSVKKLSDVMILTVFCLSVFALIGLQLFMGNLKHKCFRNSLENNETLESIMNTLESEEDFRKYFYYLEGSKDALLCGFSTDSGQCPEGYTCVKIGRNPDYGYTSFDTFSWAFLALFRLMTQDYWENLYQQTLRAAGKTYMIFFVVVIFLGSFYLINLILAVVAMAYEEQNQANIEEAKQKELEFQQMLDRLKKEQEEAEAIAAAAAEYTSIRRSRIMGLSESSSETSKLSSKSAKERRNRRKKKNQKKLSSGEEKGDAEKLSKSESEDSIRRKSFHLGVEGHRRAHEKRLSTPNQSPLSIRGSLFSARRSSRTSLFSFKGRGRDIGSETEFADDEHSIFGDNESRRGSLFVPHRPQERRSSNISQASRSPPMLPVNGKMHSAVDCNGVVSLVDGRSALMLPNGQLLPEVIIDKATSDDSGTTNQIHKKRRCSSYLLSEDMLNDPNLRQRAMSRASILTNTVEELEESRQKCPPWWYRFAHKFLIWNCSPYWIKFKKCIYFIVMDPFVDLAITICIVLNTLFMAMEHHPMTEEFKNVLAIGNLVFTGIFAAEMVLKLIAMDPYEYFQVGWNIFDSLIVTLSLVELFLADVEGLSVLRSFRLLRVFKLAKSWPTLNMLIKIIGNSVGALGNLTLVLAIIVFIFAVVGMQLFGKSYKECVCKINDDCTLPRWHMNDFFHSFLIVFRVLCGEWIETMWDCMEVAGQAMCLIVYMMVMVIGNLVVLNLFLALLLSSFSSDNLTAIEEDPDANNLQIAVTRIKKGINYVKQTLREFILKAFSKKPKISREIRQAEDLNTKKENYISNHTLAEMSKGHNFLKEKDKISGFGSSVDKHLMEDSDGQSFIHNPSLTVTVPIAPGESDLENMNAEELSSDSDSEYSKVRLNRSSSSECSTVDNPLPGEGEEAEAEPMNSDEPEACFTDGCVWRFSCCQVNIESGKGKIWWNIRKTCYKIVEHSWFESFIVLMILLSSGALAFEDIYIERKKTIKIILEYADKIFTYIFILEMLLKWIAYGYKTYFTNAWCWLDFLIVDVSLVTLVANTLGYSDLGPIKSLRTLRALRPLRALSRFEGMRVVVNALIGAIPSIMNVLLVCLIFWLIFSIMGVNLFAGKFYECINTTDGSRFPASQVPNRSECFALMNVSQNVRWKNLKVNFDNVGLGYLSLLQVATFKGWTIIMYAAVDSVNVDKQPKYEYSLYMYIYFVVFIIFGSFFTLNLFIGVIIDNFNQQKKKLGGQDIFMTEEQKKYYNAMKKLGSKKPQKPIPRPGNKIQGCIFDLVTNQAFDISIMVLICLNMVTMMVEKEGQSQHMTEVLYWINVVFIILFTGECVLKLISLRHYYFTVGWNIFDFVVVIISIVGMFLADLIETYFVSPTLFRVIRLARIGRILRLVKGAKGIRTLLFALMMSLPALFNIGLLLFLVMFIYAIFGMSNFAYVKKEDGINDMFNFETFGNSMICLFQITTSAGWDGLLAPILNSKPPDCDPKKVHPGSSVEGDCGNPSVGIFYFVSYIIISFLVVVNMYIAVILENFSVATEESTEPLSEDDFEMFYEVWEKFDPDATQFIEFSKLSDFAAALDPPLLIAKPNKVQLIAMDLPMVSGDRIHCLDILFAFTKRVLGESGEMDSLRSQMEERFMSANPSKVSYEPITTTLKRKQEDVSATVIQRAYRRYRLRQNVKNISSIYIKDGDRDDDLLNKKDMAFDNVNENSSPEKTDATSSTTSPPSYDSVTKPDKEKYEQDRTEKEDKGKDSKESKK

hNav1.5 = hNav1.5 (Homo sapiens, UniProt Q14524); details: IonWorks Quattro, use-dependent block, read-out: IWQ Use Nav1.5
hNav1.5, sequence (Q14524 whole entry, looked up): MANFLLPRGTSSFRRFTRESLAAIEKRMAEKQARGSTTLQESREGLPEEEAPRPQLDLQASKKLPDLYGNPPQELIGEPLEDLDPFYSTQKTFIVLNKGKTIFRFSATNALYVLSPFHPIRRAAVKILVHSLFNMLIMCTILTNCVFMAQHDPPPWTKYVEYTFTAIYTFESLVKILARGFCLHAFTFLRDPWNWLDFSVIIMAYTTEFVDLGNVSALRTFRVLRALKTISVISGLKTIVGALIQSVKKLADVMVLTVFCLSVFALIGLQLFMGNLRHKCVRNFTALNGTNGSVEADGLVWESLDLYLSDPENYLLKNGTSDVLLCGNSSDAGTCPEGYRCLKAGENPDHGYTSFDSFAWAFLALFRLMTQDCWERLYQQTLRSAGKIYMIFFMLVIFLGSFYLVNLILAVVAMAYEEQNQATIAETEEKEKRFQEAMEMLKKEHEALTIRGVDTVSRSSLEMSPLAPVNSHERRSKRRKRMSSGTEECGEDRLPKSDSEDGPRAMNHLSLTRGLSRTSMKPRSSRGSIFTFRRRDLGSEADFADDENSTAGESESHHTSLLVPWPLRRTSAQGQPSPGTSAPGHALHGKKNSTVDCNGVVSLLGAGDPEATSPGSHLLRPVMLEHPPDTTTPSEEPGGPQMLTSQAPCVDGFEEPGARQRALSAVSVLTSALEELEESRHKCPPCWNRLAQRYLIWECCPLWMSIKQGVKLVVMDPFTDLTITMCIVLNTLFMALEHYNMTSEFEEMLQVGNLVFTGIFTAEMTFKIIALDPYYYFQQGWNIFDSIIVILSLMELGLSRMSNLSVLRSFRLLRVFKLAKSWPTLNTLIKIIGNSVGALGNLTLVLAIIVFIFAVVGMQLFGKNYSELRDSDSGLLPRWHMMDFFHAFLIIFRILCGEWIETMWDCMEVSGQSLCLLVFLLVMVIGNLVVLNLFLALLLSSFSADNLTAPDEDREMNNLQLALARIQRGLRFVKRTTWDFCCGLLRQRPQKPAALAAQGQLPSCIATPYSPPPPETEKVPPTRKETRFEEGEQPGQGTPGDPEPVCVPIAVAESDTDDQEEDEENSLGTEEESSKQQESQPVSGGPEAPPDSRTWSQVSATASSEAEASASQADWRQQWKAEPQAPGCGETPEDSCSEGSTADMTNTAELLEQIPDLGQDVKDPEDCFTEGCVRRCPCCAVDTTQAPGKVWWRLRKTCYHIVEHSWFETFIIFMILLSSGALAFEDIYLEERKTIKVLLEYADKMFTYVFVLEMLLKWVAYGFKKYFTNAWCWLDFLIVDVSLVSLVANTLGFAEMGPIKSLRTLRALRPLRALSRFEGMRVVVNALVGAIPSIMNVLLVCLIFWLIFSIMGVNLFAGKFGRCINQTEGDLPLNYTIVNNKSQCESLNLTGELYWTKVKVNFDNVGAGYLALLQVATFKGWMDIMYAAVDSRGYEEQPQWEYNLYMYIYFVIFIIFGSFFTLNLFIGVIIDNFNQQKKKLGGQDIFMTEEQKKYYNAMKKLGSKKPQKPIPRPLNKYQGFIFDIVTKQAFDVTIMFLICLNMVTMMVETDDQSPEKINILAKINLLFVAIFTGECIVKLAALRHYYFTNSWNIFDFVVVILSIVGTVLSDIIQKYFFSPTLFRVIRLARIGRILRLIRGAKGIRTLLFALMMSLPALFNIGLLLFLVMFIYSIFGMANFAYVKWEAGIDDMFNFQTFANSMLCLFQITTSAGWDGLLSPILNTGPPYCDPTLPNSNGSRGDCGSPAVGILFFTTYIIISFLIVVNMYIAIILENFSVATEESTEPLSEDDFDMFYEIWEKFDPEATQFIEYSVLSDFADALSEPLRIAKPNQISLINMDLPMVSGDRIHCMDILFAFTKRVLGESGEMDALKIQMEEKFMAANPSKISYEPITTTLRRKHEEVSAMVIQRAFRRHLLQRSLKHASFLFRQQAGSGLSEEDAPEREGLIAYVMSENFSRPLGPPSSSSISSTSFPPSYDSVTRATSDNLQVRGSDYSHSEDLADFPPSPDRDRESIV

hNav1.3 = hNav1.3 (Homo sapiens, UniProt Q9NY46); details: IonWorks Quattro, use-dependent block, read-out: IWQ Use Nav1.3

SMILES	IC50 (hNav1.7; hNav1.7) [nM]	IC50 (hNav1.5; hNav1.5) [nM]	IC50 (hNav1.3; hNav1.3) [nM]	IC50 (hNav1.7) [nM]	IC50 (hNav1.5) [nM]	IC50 (hNav1.3) [nM]
CC[C@H](C)[C@@H]1NC(=O)[C@@H]2CSSC[C@@H]3NC(=O)[C@H](C(C)C)NC(=O)[C@H](CC(C)C)NC(=O)[C@H](CC(N)=O)NC(=O)[C@@H]4CCCN4C(=O)[C@H](CCCNC(=N)N)NC(=O)[C@H](CSSC[C@H](NC(=O)[C@@H](N)CC(=O)O)C(=O)N[C@@H](CC(C)C)C(=O)NCC(=O)N[C@@H](Cc4ccccc4)C(=O)N[C@@H](Cc4c[nH]c5ccccc45)C(=O)N[C@@H](CCCNC(=N)N)C(=O)N[C@@H](CCCCN)C(=O)N2)NC(=O)[C@H](CSSC[C@@H](C(=O)N[C@@H](CCCCN)C(=O)N[C@@H](Cc2ccc(O)cc2)C(=O)N[C@@H](Cc2cccc4ccccc24)C(=O)N[C@@H](Cc2ccccc2)C(N)=O)NC(=O)[C@H](Cc2c[nH]c4ccccc24)NC(=O)[C@H](CCCCN)NC(=O)[C@H](Cc2c[nH]cn2)NC(=O)[C@H]([C@@H](C)O)NC(=O)[C@H](CCCNC(=N)N)NC(=O)[C@H](CO)NC3=O)NC(=O)[C@H](CCCCN)NC(=O)[C@H](CC(=O)O)NC(=O)[C@H](CC(N)=O)NC(=O)[C@H](CC(=O)O)NC(=O)[C@@H]2CCCN2C1=O [compound 461] (H-DCLGFWRKCIPDNDKCCRPNLVCSRTHKWCKY[1Nal]F-NH2; disulfide 2-17, 9-23, 16-30)	100	> 5000	50	–	–	–
CSCC[C@@H]1NC(=O)[C@H](Cc2ccccc2)NC(=O)CNC(=O)[C@H](CC(C)C)NC(=O)[C@@H](NC(=O)[C@@H](N)CC(=O)O)CSSC[C@@H]2NC(=O)[C@@H]3CSSC[C@@H](C(=O)N[C@@H](CCCCN)C(=O)N[C@@H](Cc4ccc(O)cc4)C(=O)N[C@@H](Cc4cccc5ccccc45)C(=O)N[C@@H](Cc4ccccc4)C(N)=O)NC(=O)[C@H](Cc4c[nH]c5ccccc45)NC(=O)[C@H](CCCCN)NC(=O)[C@H](Cc4c[nH]cn4)NC(=O)[C@H]([C@@H](C)O)NC(=O)[C@H](CCCNC(=N)N)NC(=O)[C@H](CO)NC(=O)[C@H](CSSC[C@H](NC(=O)[C@H](CCCCN)NC(=O)[C@H](CCCNC(=N)N)NC1=O)C(=O)N[C@@H](Cc1cccc4ccccc14)C(=O)N1CCC[C@H]1C(=O)N[C@@H](CC(=O)O)C(=O)N[C@@H](CC(N)=O)C(=O)N[C@@H](CC(=O)O)C(=O)N[C@@H](CCCCN)C(=O)N3)NC(=O)[C@H](C(C)C)NC(=O)[C@H](CC(C)C)NC(=O)[C@H](CC(N)=O)NC(=O)[C@@H]1CCCN1C(=O)[C@H](CCCNC(=N)N)NC2=O [compound 462]	110	> 5000	70	–	–	–
CC[C@H](C)[C@@H]1NC(=O)[C@@H]2CSSC[C@@H]3NC(=O)[C@H](C(C)C)NC(=O)[C@H](CC(C)C)NC(=O)[C@H](CC(N)=O)NC(=O)[C@@H]4CCCN4C(=O)[C@H](CCCNC(=N)N)NC(=O)[C@H](CSSC[C@H](NC(=O)[C@@H](N)CC(=O)O)C(=O)N[C@@H](CC(C)C)C(=O)NCC(=O)N[C@@H](Cc4ccccc4)C(=O)N[C@@H](CCSC)C(=O)N[C@@H](CCCNC(=N)N)C(=O)N[C@@H](CCCCN)C(=O)N2)NC(=O)[C@H](CSSC[C@@H](C(=O)N[C@@H](CCCCN)C(=O)N[C@@H](Cc2ccc(O)cc2)C(=O)N[C@@H](Cc2cccc4ccccc24)C(=O)N[C@@H](Cc2ccccc2)C(N)=O)NC(=O)[C@H](Cc2c[nH]c4ccccc24)NC(=O)[C@H](CCCCN)NC(=O)[C@H](Cc2c[nH]cn2)NC(=O)[C@H](CC(C)C)NC(=O)[C@H](CCCNC(=N)N)NC(=O)[C@H](CO)NC3=O)NC(=O)[C@H](CCCCN)NC(=O)[C@H](CC(=O)O)NC(=O)[C@H](CC(N)=O)NC(=O)[C@H](CC(=O)O)NC(=O)[C@@H]2CCCN2C1=O [compound 463] (H-DCLGFMRKCIPDNDKCCRPNLVCSRLHKWCKY[1Nal]F-NH2; disulfide 2-17, 9-23, 16-30)	130	> 5000	180	–	–	–
CSCC[C@@H]1NC(=O)[C@H](Cc2ccccc2)NC(=O)CNC(=O)[C@H](CC(C)C)NC(=O)[C@@H](NC(=O)[C@H](CC(=O)O)NC(=O)[C@@H](N)Cc2c[nH]c3ccccc23)CSSC[C@@H]2NC(=O)[C@@H]3CSSC[C@@H](C(=O)N[C@@H](CCCCN)C(=O)N[C@@H](Cc4ccc(O)cc4)C(=O)N[C@H](C(=O)N[C@@H](Cc4ccccc4)C(N)=O)C(C)C)NC(=O)[C@H](Cc4c[nH]c5ccccc45)NC(=O)[C@H](CCCCN)NC(=O)[C@H](Cc4c[nH]cn4)NC(=O)[C@H]([C@@H](C)O)NC(=O)[C@H](CCCNC(=N)N)NC(=O)[C@H](CO)NC(=O)[C@H](CSSC[C@H](NC(=O)[C@H](CCCCN)NC(=O)[C@H](CCCNC(=N)N)NC1=O)C(=O)N[C@@H](Cc1cccc4ccccc14)C(=O)N1CCC[C@H]1C(=O)N[C@@H](CC(=O)O)C(=O)N[C@@H](CC(N)=O)C(=O)N[C@@H](CC(=O)O)C(=O)N[C@@H](CCCCN)C(=O)N3)NC(=O)[C@H](C(C)C)NC(=O)[C@H](CC(C)C)NC(=O)[C@H](CC(N)=O)NC(=O)[C@@H]1CCCN1C(=O)[C@H](CCCNC(=N)N)NC2=O [compound 464]	200	> 5000	220	–	–	–
CC[C@H](C)[C@@H]1NC(=O)[C@@H]2CSSC[C@@H]3NC(=O)[C@H](C(C)C)NC(=O)[C@H](CC(C)C)NC(=O)[C@H](CC(N)=O)NC(=O)[C@@H]4CCCN4C(=O)[C@H](CCCNC(=N)N)NC(=O)[C@H](CSSC[C@H](NC(=O)[C@@H](N)CC(=O)O)C(=O)N[C@@H](CC(C)C)C(=O)NCC(=O)N[C@@H](Cc4ccccc4)C(=O)N[C@@H](Cc4ccccc4)C(=O)N[C@@H](CCCNC(=N)N)C(=O)N[C@@H](CCCCN)C(=O)N2)NC(=O)[C@H](CSSC[C@@H](C(=O)N[C@@H](CCCCN)C(=O)N[C@@H](Cc2ccc(O)cc2)C(=O)N[C@H](C(=O)N[C@@H](Cc2cccc4ccccc24)C(N)=O)C(C)C)NC(=O)[C@H](Cc2c[nH]c4ccccc24)NC(=O)[C@H](CCCCN)NC(=O)[C@H](Cc2c[nH]cn2)NC(=O)[C@H]([C@@H](C)O)NC(=O)[C@H](CCCNC(=N)N)NC(=O)[C@H](CO)NC3=O)NC(=O)[C@H](CCCCN)NC(=O)[C@H](CC(=O)O)NC(=O)[C@H](CC(N)=O)NC(=O)[C@H](CC(=O)O)NC(=O)[C@@H]2CCCN2C1=O [compound 561] (H-DCLGFFRKCIPDNDKCCRPNLVCSRTHKWCKYV[1Nal]-NH2; disulfide 2-17, 9-23, 16-30)	–	–	–	11	2200	7
CC[C@H](C)[C@@H]1NC(=O)[C@@H]2CSSC[C@@H]3NC(=O)[C@H](C(C)C)NC(=O)[C@H](CC(C)C)NC(=O)[C@H](CC(N)=O)NC(=O)[C@@H]4CCCN4C(=O)[C@H](CCCNC(=N)N)NC(=O)[C@H](CSSC[C@H](NC(=O)[C@@H](N)CC(=O)O)C(=O)N[C@@H](CC(C)C)C(=O)NCC(=O)N[C@@H](Cc4cccnc4)C(=O)N[C@@H](CCSC)C(=O)N[C@@H](CCCNC(=N)N)C(=O)N[C@@H](CCCCN)C(=O)N2)NC(=O)[C@H](CSSC[C@@H](C(=O)N[C@@H](CCCCN)C(=O)N[C@@H](Cc2ccc(O)cc2)C(=O)N[C@H](C(=O)N[C@@H](Cc2ccccc2)C(N)=O)C(C)C)NC(=O)[C@H](Cc2c[nH]c4ccccc24)NC(=O)[C@H](CCCCN)NC(=O)[C@H](Cc2c[nH]cn2)NC(=O)[C@H]([C@@H](C)O)NC(=O)[C@H](CCCNC(=N)N)NC(=O)[C@H](CO)NC3=O)NC(=O)[C@H](CCCCN)NC(=O)[C@H](CC(=O)O)NC(=O)[C@H](CC(N)=O)NC(=O)[C@H](CC(=O)O)NC(=O)[C@@H]2CCCN2C1=O [compound 596]	2600	> 5000	> 5000	–	–	–
CC[C@H](C)[C@@H]1NC(=O)[C@@H]2CSSC[C@@H]3NC(=O)[C@H](C(C)C)NC(=O)[C@H](CC(C)C)NC(=O)[C@H](CC(N)=O)NC(=O)[C@@H]4CCCN4C(=O)[C@H](CCCNC(=N)N)NC(=O)[C@H](CSSC[C@H](NC(=O)[C@@H](N)CC(=O)O)C(=O)N[C@@H](CC(C)C)C(=O)NCC(=O)N[C@@H](C)C(=O)N[C@@H](Cc4ccccc4)C(=O)N[C@@H](CCCNC(=N)N)C(=O)N[C@@H](CCCCN)C(=O)N2)NC(=O)[C@H](CSSC[C@@H](C(=O)N[C@@H](CCCCN)C(=O)N[C@@H](Cc2ccc(O)cc2)C(=O)N[C@H](C(=O)N[C@@H](Cc2ccccc2)C(=O)O)C(C)C)NC(=O)[C@H](Cc2c[nH]c4ccccc24)NC(=O)[C@H](CCCNC(=N)N)NC(=O)[C@H](Cc2c[nH]cn2)NC(=O)[C@H]([C@@H](C)O)NC(=O)[C@H](CCCNC(=N)N)NC(=O)[C@H](CO)NC3=O)NC(=O)[C@H](CCCCN)NC(=O)[C@H](CC(=O)O)NC(=O)[C@H](Cc2ccc(O)cc2)NC(=O)[C@H](CC(=O)O)NC(=O)[C@@H]2CCCN2C1=O [compound 597] (H-DCLGAFRKCIPDYDKCCRPNLVCSRTHRWCKYVF-OH; disulfide 2-17, 9-23, 16-30)	> 5000	7350	1100	–	–	–
CC[C@H](C)[C@@H]1NC(=O)[C@@H]2CSSC[C@@H]3NC(=O)[C@H](C(C)C)NC(=O)[C@H](CC(C)C)NC(=O)[C@H](CC(N)=O)NC(=O)[C@@H]4CCCN4C(=O)[C@H](CCCNC(=N)N)NC(=O)[C@H](CSSC[C@H](NC(=O)[C@@H](N)CC(=O)O)C(=O)N[C@@H](CC(C)C)C(=O)NCC(=O)N[C@@H](C)C(=O)N[C@@H](CC(C)C)C(=O)N[C@@H](CCCNC(=N)N)C(=O)N[C@@H](CCCCN)C(=O)N2)NC(=O)[C@H](CSSC[C@@H](C(=O)N[C@@H](CCCCN)C(=O)N[C@@H](Cc2ccc(O)cc2)C(=O)N[C@H](C(=O)N[C@@H](Cc2ccccc2)C(=O)O)C(C)C)NC(=O)[C@H](Cc2c[nH]c4ccccc24)NC(=O)CNC(=O)[C@H](Cc2c[nH]cn2)NC(=O)[C@H]([C@@H](C)O)NC(=O)[C@H](CCCNC(=N)N)NC(=O)[C@H](CO)NC3=O)NC(=O)[C@H](CCCCN)NC(=O)[C@H](CC(=O)O)NC(=O)[C@H](CC(N)=O)NC(=O)[C@H](CC(=O)O)NC(=O)[C@@H]2CCCN2C1=O [compound 598] (H-DCLGALRKCIPDNDKCCRPNLVCSRTHGWCKYVF-OH; disulfide 2-17, 9-23, 16-30)	> 5000	12600	4000	–	–	–
